Structures can show the parent of a compound that is named as a salt.
How the values were obtained:
[1] = target: human adenosine A2A receptors (Homo sapiens, UniProt P29274); assay: Binding affinities at hA2A receptors, displacement of [3H]-CGS 21680; details: in vitro binding, radioligand [3H]-CGS 21680
Description: The compounds were examined in an assay measuring in vitro binding to human adenosine A2A receptors by determining the displacement of the adenosine A2A receptor selective radioligand [^3H]-CGS 21680 using standard techniques.

Sequence of human adenosine A2A receptors (P29274 whole entry): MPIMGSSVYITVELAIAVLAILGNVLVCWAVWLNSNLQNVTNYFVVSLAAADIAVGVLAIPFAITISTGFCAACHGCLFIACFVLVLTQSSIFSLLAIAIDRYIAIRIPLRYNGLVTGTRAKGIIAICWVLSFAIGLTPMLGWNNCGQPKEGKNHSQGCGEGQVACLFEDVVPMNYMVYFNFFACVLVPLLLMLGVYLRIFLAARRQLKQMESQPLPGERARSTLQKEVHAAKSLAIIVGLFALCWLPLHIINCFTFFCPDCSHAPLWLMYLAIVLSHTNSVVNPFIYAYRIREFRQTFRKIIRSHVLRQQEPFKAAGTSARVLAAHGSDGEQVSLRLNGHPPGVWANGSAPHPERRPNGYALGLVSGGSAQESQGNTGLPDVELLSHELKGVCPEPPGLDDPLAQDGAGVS

Row | SMILES | melting point | Ki [1] [nM]
1 | Cc1cc(C(O)c2ccccc2)c2ccccc2n1 (stereo not drawn) (as salt: salt) [Example 39, 2-Methyl-α-phenyl-4-quinolinemethanol] | 192 °C (dec.) | –
2 | Cc1cccc2c(C(O)c3ccccn3)cc(Br)nc12 (stereo not drawn) [Example 64, 2-Bromo-8-methyl-α-(2-pyridyl)-4-quinolinemethanol] | 149 °C (dec.) | –
3 | CN(C)c1cc(C(O)c2ccccc2)c2ccccc2n1 (stereo not drawn) [Example 35, 2-Dimethylamino-α-phenyl-4-quinolinemethanol] | 153.6 to 154.3 °C | –
4 | OC(c1cccs1)c1ccnc2ccccc12 (stereo not drawn) (as salt: salt) [Example 49, α-(2-Thienyl)-4-quinolinemethanol] | 173 °C (dec.) | –
5 | Oc1ccc(C(O)c2cc(C(F)(F)F)nc3c(C(F)(F)F)cccc23)cc1 (stereo not drawn) [Example 74, 2,8-Bis(trifluoromethyl)-α-(4-hydroxyphenyl)-4-quinolinemethanol] | – | 1630
6 | COc1cccc2c(C(O)c3ccsc3)cc(C(F)(F)F)nc12 (stereo not drawn) [Example 46, 8-Methoxy-α-(3-thienyl)-2-trifluoromethyl-4-quinolinemethanol] | 157 to 158 °C | –
7 | CC(O)(c1cc2ccccc2o1)c1cc(C(F)(F)F)nc2c(C(F)(F)F)cccc12 (centres unmarked) [Example 51] | – | 1520
8 | Cc1cc(C(O)C2CCCCC2)c2cccc(C)c2n1 (stereo not drawn) [Example 54, α-Cyclohexyl-2,8-dimethyl-4-quinolinemethanol] | 155 to 157 °C | –
9 | COc1cc(C(O)C2CCCCC2)c2ccccc2n1.Cl (centres unmarked) | 155.9 to 156.3 °C | –
10 | OC1(c2cc(C(F)(F)F)nc3c(C(F)(F)F)cccc23)CCc2ccccc21 (centres unmarked) [Example 10, 1-(2,8-Bis(tnfluoromethyl)-4-quinolinyl)-1-indanol] | – | 1750
11 | Cc1cccc2c(C(O)C3CCCCC3)cc(C(F)(F)F)nc12 (stereo not drawn) [Example 29, α-Cyclohexyl-8-methyl-2-trifluoromethy-4-quinolinemethanol] | – | 965
12 | Cc1cccc2c(C(O)c3ccccc3)cc(Br)nc12 (stereo not drawn) [Example 65, 2-Bromo-8-methyl-α-phenyl-4-quinolinemethanol] | 130.7 to 131.8 °C | –
13 | Cc1cccc2c(C(O)c3ccccn3)cc(O)nc12 (stereo not drawn) [Example 88, 2-Hydroxy-8-methyl-α-(2-pyridyl)-4-quinolinemethanol] | 215 °C (dec.) | –
14 | Nc1ccccc1C(O)c1cc(C(F)(F)F)nc2c(C(F)(F)F)cccc12 (stereo not drawn) [Example 76, α-(2-Aminophenyl)-2,8-bis(trifluoromethyl)-4-quinolinemethanol] | 145.9 to 146.2 °C | –
15 | CCc1cccc2c(C(O)c3ccsc3)cc(C(F)(F)F)nc12 (stereo not drawn) [Example 32, 8-Ethyl-α-(3-thienyl)-2-trifluoromethyl-4-quinolinemethanol] | – | 1070
16 | OC(Cc1cc(C(F)(F)F)nc2c(C(F)(F)F)cccc12)c1cc2ccccc2o1 (stereo not drawn) [Example 51, α-(2-Benzofuranyl)-2,8-bis(trifluoromethyl)-4-quinolineethanol] | 123 to 124 °C | –
17 | OC1(c2cc(C(F)(F)F)nc3ccccc23)CCSC1 (centres unmarked) [Example 44, 3-(2-trifluoromethyl-4-quinolinyl)tetrahydrothiophene-3-ol] | 130 to 131 °C | –
18 | OCCCCC(O)c1cc(C(F)(F)F)nc2c(C(F)(F)F)cccc12 (centres unmarked) [Example 82, 1-(2,8-Bis(trifluoromethyl)-4-quinolinyl)-5-hydroxypentanol] | 120.6 to 120.9 °C | –
19 | COc1cc(C(O)c2ccccn2)c2cccc(C)c2n1 (stereo not drawn) [Example 67, 2-Methoxy-8-methyl-α-(2-pyridyl)-4-quinolinemethanol] | 126.8 to 127.6 °C | –
20 | OC(c1ccsc1)c1cc(C(F)(F)F)nc2c(Cl)cccc12 (stereo not drawn) [Example 47, 8-Chloro-α-(3-thienyl)-2-trifluoromethyl-4-quinolinemethanol] | – | 1070
21 | FC(F)(F)c1cc(-c2ccco2)c2cccc(C(F)(F)F)c2n1 [Example 93, 2,8-Bis(trifluoromethyl)-4-(2-furanyl)quinoline] | 82 to 83 °C | –
22 | OC(c1ccsc1)c1cc(C(F)(F)F)nc2c(C(F)(F)F)cccc12 (stereo not drawn) [Example 3, 2,8-Bis(trifluoromethyl)-α-(3-thienyl)-4-quinolinemethanol] | – | 954
23 | OC1(c2cc(C(F)(F)F)nc3c(C(F)(F)F)cccc23)C=CCC1 (centres unmarked) [Example 53, 1-(2,8-Bis(trifluoromethyl)-4-quinolinyl)cyclopent-2-ene-1-ol] | 73 to 74 °C | –
24 | OC(Cc1cc(C(F)(F)F)nc2c(C(F)(F)F)cccc12)c1ccccc1 (stereo not drawn) [Example 9, 2,8-Bis(trifluoromethyl)-α-phenyl-4-quinolineethanol] | 111 to 112 °C | –

Now from value to compound:

Row | melting point | Ki [1] [nM] | SMILES
25 | 111 to 112 °C | – | OC(c1ccccc1)c1cc(-c2ccccc2)nc2ccccc12 (stereo not drawn) [Example 91, 2,α-Diphenyl-4-quinolinemethanol]
26 | – | 1030 | OC(c1ccoc1)c1cc(C(F)(F)F)nc2c(C(F)(F)F)cccc12 (stereo not drawn) [Example 5, 2,8-Bis(trifluoromethyl)-α-(3-furyl)-4-quinolinemethanol]
27 | 152.8 to 153.3 °C | – | O=C(NCc1ccccc1)c1cc(C(O)C2CCCCC2)c2ccccc2n1 (centres unmarked) [Example 61, N-Benzyl-4-(1-cyclohexyl-1-hydroxymethyl)-2-quinolinecarboxamide]
28 | 144 to 146 °C | – | OC(c1ccsc1)c1cc(C(F)(F)F)nc2ccccc12 (stereo not drawn) [Example 43, α-(3-Thienyl)-2-trifluoromethyl-4-quinolinemethanol]
29 | – | 1740 | O=[N+]([O-])c1ccccc1C(O)c1cc(C(F)(F)F)nc2c(C(F)(F)F)cccc12 (stereo not drawn) [Example 19, 2,8-Bis(trifluoromethyl)-α-(2-nitrophenyl)-4-quinolinemethanol]
30 | 122.5 to 123.1 °C | – | OC(c1cc(NCc2ccccc2)nc2ccccc12)C1CCCCC1 (stereo not drawn) [Example 79, 2-Benzylamino-α-cyclohexyl-4-quinolinemethanol]
31 | – | 1190 | OC(c1ccccc1Cl)c1cc(C(F)(F)F)nc2c(C(F)(F)F)cccc12 (stereo not drawn) [Example 18, 2,8-Bis(trifluoromethyl)-α-(2-chlorophenyl)-4-quinolinemethanol]
32 | 158 to 159 °C | – | OC(c1ccsc1)c1cc(-c2ccccc2)nc2ccccc12 (stereo not drawn) [Example 41, 2-Phenyl-α-(3-thienyl)-4-quinolinemethanol]
33 | – | 1550 | OC(c1cccs1)c1cc(C(F)(F)F)nc2c(C(F)(F)F)cccc12 (stereo not drawn) [Example 2, 2,8-Bis(trifluoromethyl)-α-(2-thienyl)-4-quinolinemethanol]
34 | 144 to 146 °C | – | OC(c1ccccc1)c1cc(Cl)nc2ccccc12 (stereo not drawn) [Example 83, 2-Chloro-α-phenyl-4-quinolinemethanol]
35 | > 350 °C | – | Oc1cc(C(O)(c2ccccc2)c2ccccc2)c2ccccc2n1 [Example 90, α,α-Diphenyl-2-hydroxy-4-quinolinemethanol]
36 | – | 1120 | OC(c1ccco1)c1cc(C(F)(F)F)nc2c(C(F)(F)F)cccc12 (stereo not drawn) [Example 4, 2,8-Bis(trifluoromethyl)-α-(2-furyl)-4-quinolinemethanol]
37 | 198 to 199 °C | – | OC(c1cc(C(F)(F)F)nc2c(C(F)(F)F)cccc12)c1cc(C(F)(F)F)nc2c(C(F)(F)F)cccc12 [Example 8, Bis(2,8-bis(trifluoromethyl)-4-quinolinyl)methanol]
38 | 200 °C (dec.) | – | Cc1cc(C(O)c2ccsc2)c2ccccc2n1 (stereo not drawn) (as salt: salt) [Example 42, 2-Methyl-α-(3-thienyl)-4-quinolinemethanol]

— US6583156B1 (Vernalis Research Limited, priority 1998, dated 2003)
